Common to all, as to type: cell-based
The target of assay [1] is T1, MRGPRX2 (Homo sapiens, UniProt Q96LB1).
T1 sequence (Q96LB1 1-330): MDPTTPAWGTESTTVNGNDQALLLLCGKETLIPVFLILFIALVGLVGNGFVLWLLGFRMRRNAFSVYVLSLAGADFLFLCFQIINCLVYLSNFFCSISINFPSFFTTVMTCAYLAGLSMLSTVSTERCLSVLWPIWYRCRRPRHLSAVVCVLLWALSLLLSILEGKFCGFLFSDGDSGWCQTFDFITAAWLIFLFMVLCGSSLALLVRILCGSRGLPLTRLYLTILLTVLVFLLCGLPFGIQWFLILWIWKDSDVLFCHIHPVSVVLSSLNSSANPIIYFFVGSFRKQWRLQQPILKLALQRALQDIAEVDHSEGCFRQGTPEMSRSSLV
Description: MRGPRX2 β-Arrestin assay. Also on record: host or cells: PathHunter CHO-K1. The settings on record: PathHunter CHO-K1 MRGPRX2 β-Arrestin cell line; agonist Cortistatin 14 0.25 μM. The source says:
Example C: MRGPRX2 β-Arrestin Assay
This assay measures compound inhibition of β-Arrestin recruitment, which is part of the G protein-independent pathway that results from the ligand-activated GPCR phosphorylation by specific GPCR kinases. The PathHunter CHO-K1 MRPGRX2 B-Arrestin Cell line stably expressing ProLink tagged MRGPRX2 and Enzyme Acceptor Tagged B-Arrestin was purchased from Eurofins DiscoverX, (Fremont, CA).
The cells were maintained in culture medium from the Europhins DiscoverX Cell Culture Kit-107 which includes FBS, hygromycin B and G418. For the assay, the cells were harvested and were resuspended with Cell Plating Reagent 2 (Eurofins DiscoverX). Cells were added 10000 cells in 25 µL/well to a 384-well black cell culture plate (Greiner VWR, Radnor, PA) which contained 125 nL/well of compound at a selected serially diluted concentration range or DMSO. The plate was incubated at 37° C. with 5% CO2 for 1 h. 2 μL/well of agonist Cortistatin 14 was diluted in Protein Dilution Buffer, (Eurofins DiscoverX) for a final concentration of 0.25 μM, was added and the plate was incubated at 37° C. with 5% CO2 for 90 min. 14 μL/well of Detection Reagent Mix (PathHunter Detection Kit, Eurofins DiscoverX) was added to the plates and further incubated for 1 h in the dark. Plates were read on the PHERAstar microplate reader (BMG Labtech Cary, NC) measuring luminescence 0.1 to 1 second per well. Data was normalized using DMSO only wells and wells with high concentration of reference antagonist as controls. Compound IC50 curves were globally fitted with 3- or 4-parameter Hill equation in a Genedata Screener (Genedata Basel, Switzerland).

Assay [2] concerns the target T1, MRGPRX2. Description: MRGPRX2 FLIPR calcium mobilization assay. Set-up: host or cells: CHO-K1. As to conditions: CHO-K1 cells stably expressing human MRGPRX2; Ca2+ release, agonist Cortistatin-14 at EC80. As for the experimental part:
Example A. MRGPRX2 FLIPR Calcium Mobilization Assay
Chinese hamster ovary (CHO-K1) cells stably expressing human MRGPRX2 were purchased from Genescript (Piscataway, NJ). The cells were maintained in culture medium (Ham's F-12K) containing 10% (v/v) FBS, 200 μg/mL Zeocin, 100 units/mL penicillin G and 100 μg/mL streptomycin (Life Technologies, Carlsbad, CA). For the assay, the cells were harvested and resuspended with culture medium without Zeocin before plating at 8000 cells per well in 20 μL in 384-well black clear bottom cell culture plates (VWR, Radnor, PA). After 24 h culture at 37° C. and 5% CO2, the cells were loaded with 20 μL/well of calcium dye (FLIPR Calcium 6 Assay Kit, Molecular Devices, San Jose, CA) diluted in loading buffer (1×Hank's Balanced Salt Solution (HBSS), 5 mM probenecid, 20 mM 4-(2-hydroxyethyl)-1-piperazineethanesulfonic acid (HEPES), pH 7.4, VWR, Radnor, PA) followed with 45 min incubation at 37° C. and 40 min at room temperature in the dark. Cells were then treated with the addition of 10 uL/well test compounds with a range of increasing concentrations diluted in the assay buffer (1×HBSS, 20 mM HEPES, pH 7.4, VWR, Radnor, PA) with FLIPR Penta (Molecular Devices. San Jose, CA) and incubated for 30 min. at room temperature. Ca^2+ release was measured with FLIPR Penta with 10 seconds basal fluorescence measurement, then 12.5 μL of 5× agonist Cortistatin-14 (Tocris, Minneapolis, MN) at final concentration corresponding to the EC80 were added followed with continued fluorescence signal monitoring for an additional 110 seconds. The base line adjusted (median of first 10s base line) max value of the Relative Fluorescence Unit (RFU) was plotted against compound concentrations. Wells with no compound were served as the positive controls, and wells with high concentration of reference antagonist were used as negative controls. IC50 curves were globally fitted with 3- or 4-parameter Hill equation in a Genedata Screener (Genedata Basel, Switzerland).
(In general: Calcium assays in cells follow changes in intracellular calcium, usually with a dye or a luminescent sensor.)

For assay [3], the target named is T1, MRGPRX2. Description: MRGPRX2 IP1 HTRF assay. The settings on record: CHO-K1 cells stably expressing human MRGPRX2; IP1 accumulation, agonist Cortistatin 14 1 μM. Set-up: host or cells: CHO-K1.

For `N#CN=C(N)N1CC(CNc2cc(C(F)(F)F)nc3ccc(Cl)cc23)(c2ccc(F)cc2)C1` [Example 7, 3-(((6-Chloro-2-(trifluoromethyl)quinolin-4-yl)amino)methyl)-N′-cyano-3-(4-fluorophenyl)azetidine-1-carboximidamide], the IC50 in assay [1], in assay [2] and in assay [3] was 0.1 to 100 nM throughout.

As to `[2H]C([2H])([2H])NC(=O)N1CC(CNc2cc(C(F)(F)F)nc3ccc(Cl)cc23)(n2ccc(F)n2)C1` [Example 109, 3-(((6-Chloro-2-(trifluoromethyl)quinolin-4-yl)amino)methyl)-3-(3-fluoro-1H-pyrazol-1-yl)-N-(methyl-d3)azetidine-1-carboxamide], the half-maximal inhibitory concentration (IC50) in assay [1], in assay [2] and in assay [3] was 0.1 to 100 nM throughout.

As for `CNC(=O)N1CCC(CNc2cc(C(F)(F)F)nc3ccc(Cl)cc23)(c2ccccc2)C1` (stereo not drawn) [Example 14, 3-(((6-Chloro-2-(trifluoromethyl)quinolin-4-yl)amino)methyl)-N-methyl-3-phenylpyrrolidine-1-carboxamide], the 50% inhibitory concentration (IC50) in assay [1], in assay [2] and in assay [3] was 0.1 to 100 nM each time.

Regarding `NC(=O)N1CC(CNc2cc(C(F)(F)F)nc3ccc(Cl)cc23)(n2cc(Cl)cn2)C1` [Example 37, 3-(4-Chloro-1H-pyrazol-1-yl)-3-(((6-chloro-2-(trifluoromethyl)quinolin-4-yl)amino)methyl)azetidine-1-carboxamide], the 50% inhibitory concentration (IC50) in assay [1], in assay [2] and in assay [3] was 0.1 to 100 nM in each case.

In the case of `FC(F)(F)c1cc(NCC2(c3ccccc3)CCOCC2)c2cc(Cl)ccc2n1` [Example 17, 6-Chloro-N-((4-phenyltetrahydro-2H-pyran-4-yl)methyl)-2-(trifluoromethyl)quinolin-4-amine], the IC50 in assay [1], in assay [2] and in assay [3] was 0.1 to 100 nM each time.

Turning to `N#CN=C(N)N1CCC(CNc2cc(C(F)(F)F)nc3ccc(Cl)cc23)(c2ccccc2)CC1` [Example 9, 4-(((6-Chloro-2-(trifluoromethyl)quinolin-4-yl)amino)methyl)-N′-cyano-4-phenylpiperidine-1-carboximidamide], the IC50 in assay [1], in assay [2] and in assay [3] was 0.1 to 100 nM each time.

With `NS(=O)(=O)N1CC(CNc2cc(C(F)(F)F)nc3ccc(Cl)cc23)(n2cc(F)cn2)C1` [Example 24, 3-(((6-Chloro-2-(trifluoromethyl)quinolin-4-yl)amino)methyl)-3-(4-fluoro-1H-pyrazol-1-yl)azetidine-1-sulfonamide], the half-maximal inhibitory concentration (IC50) in assay [1], in assay [2] and in assay [3] was 0.1 to 100 nM throughout.

As to `NC(=O)N1CCC(CNc2cc(C(F)(F)F)nc3ccc(Cl)cc23)(c2ccc(F)cn2)C1` (stereo not drawn) [Example 20, 3-(((6-Chloro-2-(trifluoromethyl)quinolin-4-yl)amino)methyl)-3-(5-fluoropyridin-2-yl) pyrrolidine-1-carboxamide], the IC50 in assay [1], in assay [2] and in assay [3] was 0.1 to 100 nM in each case.

For the molecule `NS(=O)(=O)N1CC(CNc2cc(C(F)(F)F)nc3ccc(Cl)cc23)(c2nc3cc(F)ccc3s2)C1` [Example 85, 3-(((6-Chloro-2-(trifluoromethyl)quinolin-4-yl)amino)methyl)-3-(5-fluorobenzo[d]thiazol-2-yl)azetidine-1-sulfonamide], the 50% inhibitory concentration (IC50) in assay [1] and in assay [2] was 0.1 to 100 nM each time.

Turning to `[2H]C([2H])([2H])NC(=O)N1CC(CNc2cc(C(F)(F)F)nc3ccc(Cl)cc23)(n2cc(F)cn2)C1` [Example 26, 3-(((6-Chloro-2-(trifluoromethyl)quinolin-4-yl)amino)methyl)-3-(4-fluoro-1H-pyrazol-1-yl)-N-(methyl-d3)azetidine-1-carboxamide], the concentration for half-maximal inhibition (IC50) in assay [1], in assay [2] and in assay [3] was 0.1 to 100 nM each time.

Regarding `NC(=O)N1CC(CNc2cc(C(F)(F)F)nc3ccc(Br)cc23)(c2ccc(F)cn2)C1` [Example 6, 3-(((6-Bromo-2-(trifluoromethyl)quinolin-4-yl)amino)methyl)-3-(5-fluoropyridin-2-yl)azetidine-1-carboxamide], the IC50 in assay [1], in assay [2] and in assay [3] was 0.1 to 100 nM in each case.

On to `CNC(=O)N1CC(CNc2cc(C(F)(F)F)nc3ccc(Cl)cc23)(c2ccc3cnn(C)c3c2)C1` [Example 83], for which the values for the 50% inhibitory concentration (IC50) in assay [1], in assay [2] and in assay [3] were 100 to 1000 nM, 0.1 to 100 nM and 100 to 1000 nM, respectively.

Regarding `NS(=O)(=O)N1CC(CNc2cc(C(F)(F)F)nc3ccc(Cl)cc23)(c2cccc(F)c2)C1` [Example 31, 3-(((6-Chloro-2-(trifluoromethyl)quinolin-4-yl)amino)methyl)-3-(3-fluorophenyl)azetidine-1-sulfonamide], the 50% inhibitory concentration (IC50) in assay [1], in assay [2] and in assay [3] was 0.1 to 100 nM throughout.

As for `NC(=O)C1(C(=O)NC2CC(CNc3cc(C(F)(F)F)nc4ccc(Cl)cc34)(c3ccccc3)C2)CC1` (stereo not drawn) [Example 74, N-(3-(((6-Chloro-2-(trifluoromethyl)quinolin-4-yl)amino)methyl)-3-phenylcyclobutyl)cyclopropane-1,1-dicarboxamide], the IC50 in assay [1] and in assay [3] was 0.1 to 100 nM each time.

For `[2H]C([2H])([2H])NC(=O)N1CC(CNc2cc(C(F)(F)F)nc3ccc(Br)cc23)(n2cc(F)cn2)C1` [Example 97, 3-(((6-Bromo-2-(trifluoromethyl)quinolin-4-yl)amino)methyl)-3-(4-fluoro-1H-pyrazol-1-yl)-N-(methyl-d3)azetidine-1-carboxamide], the IC50 in assay [1] and in assay [3] was 0.1 to 100 nM throughout.

For the molecule `Cc1nc(CN2CC(CNc3cc(C(F)(F)F)nc4ccc(Cl)cc34)(c3ccc(F)cc3)C2)c[nH]1` [Example 94, 6-Chloro-N-((3-(4-fluorophenyl)-1-((2-methyl-1H-imidazol-4-yl)methyl)azetidin-3-yl)methyl)-2-(trifluoromethyl)quinolin-4-amine], the concentration for half-maximal inhibition (IC50) in assay [1] and in assay [3] was 0.1 to 100 nM each time.

In the case of `O=C(O)C1CCC(CNc2cc(C(F)(F)F)nc3ccc(Cl)cc23)(c2ccccc2)CC1` (stereo not drawn) [Example 67, 4-(((6-Chloro-2-(trifluoromethyl)quinolin-4-yl)amino)methyl)-4-phenylcyclohexane-1-carboxylic acid], the IC50 in assay [1] and in assay [3] was 0.1 to 100 nM each time.

In the case of `Nc1nc(N2CCC(CNc3cc(C(F)(F)F)nc4ccc(Cl)cc34)(c3ccccc3)CC2)nn1CCN1CCOCC1` [Example 79, N-((1-(5-Amino-1-(2-morpholinoethyl)-1H-1,2,4-triazol-3-yl)-4-phenylpiperidin-4-yl)methyl)-6-chloro-2-(trifluoromethyl)quinolin-4-amine], the IC50 in assay [1] and in assay [2] was 0.1 to 100 nM throughout.

Usually IC50 stands for the midpoint of a concentration-inhibition curve.
